The target in one test is T1, streptavidin (Streptomyces avidinii, UniProt P22629).
T1 construct: purchased GE Healthcare (Little Chalfont, UK)
T1 sequence (P22629 25-183): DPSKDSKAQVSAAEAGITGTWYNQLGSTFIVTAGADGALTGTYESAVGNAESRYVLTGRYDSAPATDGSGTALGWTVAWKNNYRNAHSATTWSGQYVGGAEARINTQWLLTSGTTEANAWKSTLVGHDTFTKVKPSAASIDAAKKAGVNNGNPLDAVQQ
Kind of test: Cy5-streptavidin binding on HotSpot discovery array, 5-mer L-peptide library. As to conditions: 5-mer L-peptide library array, Cy5-streptavidin; from average of three arrays. The method, boiled down: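 Array of 2,476,099 5-mer peptides (19 amino acids, no cysteine) with Gly-Ser linkers, probed overnight at 4 °C with 0.5 µg/ml Cy5-streptavidin in Tris pH 7.4 buffer containing casein or BSA plus Tween-20. Cy5 fluorescence read at 635 nm; peptides selected by signal-to-background >4 across three arrays.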
IQHPQ: the “S/B (signal to background ratio)” value came to 139.6.
On the same count and under the same terms, the same measure for HPQRG: 33.4; for PSHPQ: 136.6.
Still for that read-out and setting: as for NAHPM, the figure is 36.0.
In the case of HRHPQ, the “S/B (signal to background ratio)” value is 149.4.
Still for that read-out and setting: the same measure for HPQGG: 131.5; for HPQFP: 141.5.
The same measure, in the same setting: as for PLHPM, the figure is 39.0; as for FPHPQ, 173.5.
Still for that read-out and setting: as for SEHPM, the figure is 19.1; as for GMHPM, 38.8; as for AWHPQ, 172.2.
Regarding VKHPM, the “S/B (signal to background ratio)” value was 19.5.
Still for that read-out and setting: the same measure for PPHPQ: 150.0; for GQHPQ: 134.5; for NNHPQ: 137.3.
Take MQHPQ: the “S/B (signal to background ratio)” value is recorded as 157.5.
Still for that read-out and setting: as for TRHPQ, the figure is 156.2.
Same read-out and setting: as for ERHPQ, the figure is 134.2; as for HPQQG, 47.0.
In the case of PVHPM, the “S/B (signal to background ratio)” value amounted to 27.2.
Still for that read-out and setting: as for HHPQQ, the figure is 45.6; as for MKHPM, 20.4.
Turning to LAHPQ, the “S/B (signal to background ratio)” value is on record as 168.6.
On the same count and under the same terms, as for QHPQN, the figure is 143.0.

Staying with this test, now noted: 5-mer L-peptide library array, Cy5-streptavidin; from the average of three arrays.
In the case of AHPMA, the “S/B (signal to background ratio)” value came to 60.9.
The same measure, in the same setting: as for LMHPM, the figure is 66.9; as for HPQVG, 114.3.
Same read-out and setting: the same measure for NIHPQ: 100.3; for WMHPM: 117.2.
Same read-out and setting: as for YEHPQ, the figure is 103.2; as for FHPQM, 58.1.
Turning to YFHPM, the “S/B (signal to background ratio)” value is 69.8.
The same measure, in the same setting: as for HKHPQ, the figure is 86.4.
With HFHPM, the “S/B (signal to background ratio)” value is listed as 76.4.
Same read-out and setting: the same measure for HPQFV: 69.2; for YAHPM: 87.4.
Still for that read-out and setting: as for EHHPQ, the figure is 87.5; as for TWHPM, 59.8; as for LDHPQ, 89.3.
With SHPQG, the “S/B (signal to background ratio)” value is given as 117.3.
Same read-out and setting: as for FYHPM, the figure is 99.8; as for IFHPM, 60.0.
On the same count and under the same terms, as for WKHPM, the figure is 66.5.

The test is the same for the next values; noted with them: 5-mer L-peptide library, from the average of three arrays.
With HPMRH, the “S/B (signal to background ratio)” value stood at 4.9.
For WHPNR, the “S/B (signal to background ratio)” value was found to be 5.2.
As to HPMMF, the “S/B (signal to background ratio)” value stood at 5.1.
Still for that read-out and setting: the same measure for WHKPQ: 4.7; for HPMRF: 4.6.
Consider HPWRS, for which the “S/B (signal to background ratio)” value was determined as 4.0.
The same measure, in the same setting: as for HPQIP, the figure is 4.0.

Staying with this test, now noted: average of three arrays, L-peptide 5-mer library.
For the substance “LGKYH [L-amino acid 5-mer array peptide]”, the “S/B (signal to background ratio)” value was 6.7.
On to “MANHF [L-amino acid 5-mer array peptide]”, for which the “S/B (signal to background ratio)” value turned out to be 6.0.

The same test, now with this note: signal to background ratio; 5-mer L-peptide library array, Cy5-streptavidin.
Take “LGKYH [L-amino acid 5-mer array peptide]”: the S/B stood at 6.7.
Still for that read-out and setting: as for HPQTQ, the figure is 5.4.
The same measure, in the same setting: as for WHPPQ, the figure is 9.3.
Still for that read-out and setting: as for “MANHF [L-amino acid 5-mer array peptide]”, the figure is 6.0.
As for DHPMN, the S/B came out at 12.4.
Same read-out and setting: the same measure for IHPQW: 12.0.
The same measure, in the same setting: the same measure for RHPMW: 5.9; for ESHPM: 17.2.
On the same count and under the same terms, as for QHPMY, the figure is 11.3.
With EHPQQ, the S/B is listed as 16.2.
For PHPMN, the S/B is 14.3.
On the same count and under the same terms, the same measure for KHPMN: 5.9; for QHPMR: 9.5; for GHPMM: 11.7.
On the same count and under the same terms, the same measure for GHPMF: 15.1; for HPMRY: 5.8.
On to DKHPM, for which the S/B came to 18.2.

The values are drawn from publication PMC5608804, “Stepwise Evolution Improves Identification of Diverse Peptides Binding to a Protein Target” (Scientific Reports, 2017).
